Here are results for 7 compounds from ChEMBL document CHEMBL5226311, “Recent Progress on Tubulin Inhibitors with Dual Targeting Capabilities for Cancer Therapy” (J Med Chem, 2021).

Test [1] has as its system NCI-H460. The test can be described thus: Antitumor activity against human NCI-H460 cells expressing TaxR xenografted in mouse assessed as inhibition of tumor growth at 30 mg/kg relative to control. It is filed as functional. As to conditions: read-out: TGI. A general note: A xenograft is tissue or cells of one species grown in another, often human tumour cells in immunodeficient mice.

For test [2], the system named is NCI-H460. The test can be described thus: Antitumor activity against human NCI-H460 cells xenografted in mouse assessed as inhibition of tumor growth at 30 mg/kg relative to control. It is filed as functional. As to conditions: read-out: TGI.
Test [3] has as its system NCI-H460. Description: Antiproliferative activity against human NCI-H460 cells assessed as cell growth inhibition. It is filed as functional, cell-based.
For test [4], the system named is NCI-H460. The test can be described thus: Antiproliferative activity against human NCI-H460 cells expressing TaxR assessed as cell growth inhibition. It is filed as functional, cell-based.
A further test deals with EA.hy 926. The test can be described thus: Antiproliferative activity against human EA.hy 926 cells assessed as cell growth inhibition. It is filed as functional, cell-based.
Test [5] relates to KB. The test can be described thus: Antiproliferative activity against human KB cells assessed as cell growth inhibition. It is filed as functional, cell-based.
In test [6] the test system is KB. The test can be described thus: Antiproliferative activity against etoposide-resistant human KB cells assessed as cell growth inhibition. It is filed as functional, cell-based.
Test [7] has as its system KB. Description: Antiproliferative activity against vincristine-resistant human KB cells assessed as cell growth inhibition. It is filed as functional, cell-based.
The next test has as its system A549. The test can be described thus: Antiproliferative activity against human A549 cells assessed as cell growth inhibition. It is filed as functional, cell-based.
In the next test the test system is MCF7. Description: Antiproliferative activity against human MCF7 cells assessed as cell growth inhibition. It is filed as functional, cell-based.
In a further test the test system is HL60/MX2. The test can be described thus: Antiproliferative activity against human HL60/MX2 cells assessed as cell growth inhibition. It is filed as functional, cell-based.
The subject of another test is MES-SA/Dx5. Description: Antiproliferative activity against human MES-SA/Dx5 cells assessed as cell growth inhibition. It is filed as functional, cell-based.
Test [8] is described as follows: Antiproliferative activity against human KB/VCR cells assessed as cell growth inhibition. It is filed as functional, cell-based.
The target in test [9] is Vascular endothelial growth factor receptor 2 (Homo sapiens, UniProt P35968). Description: Inhibition of VEGFR2 (unknown origin).
Test [10] has as its target Epidermal growth factor receptor (Homo sapiens, UniProt P00533). Description: Inhibition of EGFR (unknown origin).

The structures appear in SMILES notation.

Vascular endothelial growth factor receptor 2, sequence (P35968 whole entry): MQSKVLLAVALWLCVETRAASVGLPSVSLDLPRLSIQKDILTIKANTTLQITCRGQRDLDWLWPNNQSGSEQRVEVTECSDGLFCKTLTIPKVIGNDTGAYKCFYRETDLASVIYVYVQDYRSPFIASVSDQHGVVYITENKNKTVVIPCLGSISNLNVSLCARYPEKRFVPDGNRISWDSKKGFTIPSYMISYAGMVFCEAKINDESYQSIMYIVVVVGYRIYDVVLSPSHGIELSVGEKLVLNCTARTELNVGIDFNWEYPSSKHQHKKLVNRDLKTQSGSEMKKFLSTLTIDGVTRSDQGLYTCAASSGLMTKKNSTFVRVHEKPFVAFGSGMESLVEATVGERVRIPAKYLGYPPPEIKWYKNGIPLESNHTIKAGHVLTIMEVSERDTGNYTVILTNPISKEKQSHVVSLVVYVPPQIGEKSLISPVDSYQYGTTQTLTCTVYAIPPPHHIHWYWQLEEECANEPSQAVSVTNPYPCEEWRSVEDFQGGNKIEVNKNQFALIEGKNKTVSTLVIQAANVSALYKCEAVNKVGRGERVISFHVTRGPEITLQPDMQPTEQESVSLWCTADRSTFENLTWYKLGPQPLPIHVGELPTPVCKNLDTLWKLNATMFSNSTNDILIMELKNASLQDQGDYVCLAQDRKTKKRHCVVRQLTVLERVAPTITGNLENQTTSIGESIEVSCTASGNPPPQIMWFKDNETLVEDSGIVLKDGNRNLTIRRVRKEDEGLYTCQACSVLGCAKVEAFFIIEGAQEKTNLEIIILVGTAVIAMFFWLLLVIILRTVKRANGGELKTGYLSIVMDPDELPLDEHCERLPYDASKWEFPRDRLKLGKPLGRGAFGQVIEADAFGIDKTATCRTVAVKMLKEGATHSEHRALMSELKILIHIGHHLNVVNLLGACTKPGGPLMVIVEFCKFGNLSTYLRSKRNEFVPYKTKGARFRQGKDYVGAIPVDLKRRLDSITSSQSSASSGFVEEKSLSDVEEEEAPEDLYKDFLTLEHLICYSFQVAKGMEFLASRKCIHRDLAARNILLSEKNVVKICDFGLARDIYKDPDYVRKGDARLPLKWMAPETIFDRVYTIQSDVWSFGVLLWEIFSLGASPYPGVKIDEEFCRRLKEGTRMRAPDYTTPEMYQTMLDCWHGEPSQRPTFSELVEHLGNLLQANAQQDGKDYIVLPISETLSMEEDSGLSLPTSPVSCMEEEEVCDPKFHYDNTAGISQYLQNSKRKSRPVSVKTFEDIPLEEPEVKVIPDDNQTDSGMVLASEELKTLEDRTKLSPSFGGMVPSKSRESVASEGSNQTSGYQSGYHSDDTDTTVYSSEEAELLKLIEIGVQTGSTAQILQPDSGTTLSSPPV
Epidermal growth factor receptor, sequence (P00533 whole entry): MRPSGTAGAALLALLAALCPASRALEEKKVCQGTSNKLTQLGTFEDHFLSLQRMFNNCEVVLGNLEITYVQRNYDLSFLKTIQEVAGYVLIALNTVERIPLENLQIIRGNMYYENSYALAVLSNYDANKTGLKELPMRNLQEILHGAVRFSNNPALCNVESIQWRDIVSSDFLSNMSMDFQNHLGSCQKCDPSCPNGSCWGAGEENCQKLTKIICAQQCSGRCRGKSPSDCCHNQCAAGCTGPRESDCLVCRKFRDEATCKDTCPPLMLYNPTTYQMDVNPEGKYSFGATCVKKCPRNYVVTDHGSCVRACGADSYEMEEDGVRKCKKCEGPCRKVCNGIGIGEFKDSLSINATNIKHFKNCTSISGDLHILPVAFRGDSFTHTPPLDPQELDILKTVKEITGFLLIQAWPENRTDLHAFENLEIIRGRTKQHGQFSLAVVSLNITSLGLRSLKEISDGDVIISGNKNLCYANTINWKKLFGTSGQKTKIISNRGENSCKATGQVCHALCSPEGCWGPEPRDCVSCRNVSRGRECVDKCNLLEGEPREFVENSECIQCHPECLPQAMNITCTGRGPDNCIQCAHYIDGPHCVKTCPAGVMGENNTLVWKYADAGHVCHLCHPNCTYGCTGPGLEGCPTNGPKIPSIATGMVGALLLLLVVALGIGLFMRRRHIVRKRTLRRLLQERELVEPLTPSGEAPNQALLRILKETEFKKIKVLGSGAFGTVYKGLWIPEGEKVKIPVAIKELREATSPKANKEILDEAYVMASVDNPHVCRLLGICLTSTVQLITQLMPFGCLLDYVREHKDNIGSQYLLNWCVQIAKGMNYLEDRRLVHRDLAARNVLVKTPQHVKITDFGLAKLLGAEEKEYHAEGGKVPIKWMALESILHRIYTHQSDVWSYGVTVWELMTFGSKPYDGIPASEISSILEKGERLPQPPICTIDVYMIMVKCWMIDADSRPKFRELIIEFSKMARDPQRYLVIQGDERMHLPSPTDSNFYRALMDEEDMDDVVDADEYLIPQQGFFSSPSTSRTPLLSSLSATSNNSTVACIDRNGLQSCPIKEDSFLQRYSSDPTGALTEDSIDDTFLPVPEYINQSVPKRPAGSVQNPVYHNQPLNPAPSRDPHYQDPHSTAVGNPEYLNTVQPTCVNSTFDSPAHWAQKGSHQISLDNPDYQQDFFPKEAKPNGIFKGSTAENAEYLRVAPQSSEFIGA

In the case of `CC(=O)O[C@H]1C(=O)[C@@]2(C)[C@H]([C@H](OC(=O)c3ccccc3)[C@]3(O)C[C@H](OC(=O)[C@H](O)[C@@H](NC(=O)c4ccccc4)c4ccccc4)C(C)=C1C3(C)C)[C@]1(OC(C)=O)CO[C@@H]1C[C@@H]2O` [PACLITAXEL], the inhibition in vivo at 30 mg/kg in the test with NCI-H460 [1] came to 40%.
In general, IC50 refers to the concentration at which inhibition is half-maximal. On to `CN(C)c1ccc(/C=C2/SC(=Nc3ccccc3Cl)NC2=O)cc1`, for which the inhibition in vivo at 30 mg/kg turned out to be 60.4% in the test with NCI-H460 [1] and 62.4% in the test with NCI-H460 [2]. For the same compound, the IC50 in the test on NCI-H460 [3] was found to be 700 nM; in the test on NCI-H460 [4], 800 nM.
As for `COc1ccc(/C=C\c2cc(OC)c(OC)c(OC)c2)cc1O` [COMBRETASTATIN A4], the IC50 in the test with EA.hy 926 was 11 nM.
Take `COc1ccc(S(=O)(=O)Nc2ccccc2NCc2ccc(C(=O)Nc3ccccc3N)cc2)cc1`: the IC50 is 12 nM in the test on KB [5], 22 nM with KB [6] and 12 nM in the test on KB [7].
Turning to `COC(=O)NCCc1c(C(=O)c2cc(C(F)(F)F)cc(C(F)(F)F)c2)[nH]c2ccccc12`, the values for the half-maximal inhibitory concentration (IC50) in the test on A549 and in the test with MCF7 were 2010 nM and 1300 nM, respectively.
Consider `COc1ccc(O)c(C(=O)c2cnc3[nH]c4ccccc4c3c2)c1`, for which the IC50 came to 320 nM with HL60/MX2, 160 nM in the test on MES-SA/Dx5 and 400 nM in test [8].
In the case of `COc1ccc(-c2cc(=O)oc3c(O)c(O)ccc23)cc1O`, the values for the IC50 in [9] and in test [10] were 5500 nM and 4900 nM, respectively.
